These results are taken from ChEMBL document CHEMBL1201862, “PubChem BioAssay data set” (2004).

Among the test systems are K562; SK-MEL-5; MDA-MB-435; DU-145; NCI-H460; SN12C; A498; HCT-15; UACC-62; SF-268; T47D; NCI/ADR-RES; IGROV-1; A549; PC-3; SW-620; 786-0; LOX IMVI; CCRF-CEM.
Holding throughout (assay): NCI anticancer screen, dose series, 48 h

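In this assay, cells in 96-well plates receive the compound at five concentrations for 48 hours. Endpoints are linearly interpolated between the surrounding concentrations. GI50 = concentration required for 50% inhibition of growth.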 Activity calls are given as the source filed them. Rule as the data show it: active = GI50 up to about 1.1 µM and inactive = higher. Peptide text beside a SMILES is read from it.

Consider `CCOC(=O)C(C(=O)OCC)C(NC(=O)Nc1cc(C(F)(F)F)ccc1OC)(C(F)(F)F)C(F)(F)F`, for which the GI50 was 24.2 µM (inactive) with K562; 19.4 µM (inactive) with SK-MEL-5; 19.1 µM (inactive) with MDA-MB-435; 40.3 µM (inactive) in the assay with DU-145; 31.5 µM (inactive) with NCI-H460; 27.5 µM (inactive) in the assay on SN12C. Besides, the GI50 in the assay with A498 is 16.5 µM (inactive); in the assay on HCT-15, 45.8 µM; in the assay with UACC-62, 22.5 µM (inactive); with SF-268, 36.4 µM (inactive); in the assay with T47D, 30.4 µM (inactive); in the assay on NCI/ADR-RES, 28.6 µM (inactive). Besides, the GI50 in the assay on IGROV-1 was 25.4 µM (inactive); with A549, 39.4 µM (inactive); with PC-3, 39.6 µM (inactive); with SW-620 it was 24.6 µM (inactive); in the assay on 786-0, 24.6 µM (inactive); in the assay on LOX IMVI it was 29.8 µM (inactive). For the same molecule, in the assay with CCRF-CEM, the GI50 is 20.8 µM (inactive).

For the molecule `CC(C)CC(NC(=O)C(CC(C)C)NC(=O)C(Cc1c[nH]cn1)NC(=O)C(C)NC(=O)C(NC(=O)C(C)NC(=O)C(Cc1c[nH]c2ccccc12)NC(=O)C(CCC(=O)O)NC(=O)C(N)Cc1ccccc1)C(C)C)C(N)=O` (stereo not drawn) (H-FEWAVAHLL-NH2; configuration not given here), the GI50 with K562, in the assay on SK-MEL-5, in the assay with MDA-MB-435, in the assay with DU-145, in the assay on NCI-H460 and in the assay with SN12C was > 12.5 µM (inactive) throughout. The GI50 in the assay with A498 is > 12.5 µM (inactive); in the assay on HCT-15 it was more than 12.5 µM; in the assay with UACC-62 it was > 12.5 µM (inactive); with SF-268, > 12.5 µM (inactive); with T47D, > 12.5 µM (inactive); in the assay with NCI/ADR-RES it was > 12.5 µM (inactive). Also, the GI50 in the assay on IGROV-1, in the assay with A549, in the assay with PC-3, in the assay with SW-620, with 786-0 and in the assay on LOX IMVI was > 12.5 µM (inactive) each time. The GI50 in the assay with CCRF-CEM was > 12.5 µM (inactive).

As for `CCOC(=O)C1=C(C)N(Cc2ccccc2)C2(O)C=CC(=O)C3C(=O)N(c4ccccc4)C(=O)C132` (stereo not drawn), the GI50 with K562 is 3.66 µM (inactive); with SK-MEL-5 it was 3.57 µM (inactive); in the assay on MDA-MB-435 it was 1.89 µM (inactive); in the assay with DU-145 it was 2.15 µM (inactive); with NCI-H460, 1.81 µM (inactive); in the assay on SN12C it was 2.56 µM (inactive). In addition, the GI50 in the assay on A498 was 14.5 µM (inactive); with HCT-15, 1.79 µM; in the assay on UACC-62 it was 1.71 µM (inactive); in the assay on SF-268 it was 2.54 µM (inactive); in the assay on T47D, 2.42 µM (inactive); in the assay with NCI/ADR-RES, 2.75 µM (inactive). Besides, the GI50 was 2 µM (inactive) in the assay with IGROV-1; 2.86 µM (inactive) with A549; 1.92 µM (inactive) in the assay on PC-3; 1.59 µM (inactive) in the assay on 786-0; 1.36 µM (inactive) in the assay with LOX IMVI; 0.735 µM (active) with CCRF-CEM.

In the case of `[O-][N+]1=C(c2ccccc2)/C(=C2/C(c3ccccc3)=[N+]([O-])c3ccccc32)Cc2ccccc21`, the GI50 in the assay on K562 was 19.1 µM (inactive); with SK-MEL-5, 17.6 µM (inactive); with MDA-MB-435, 20.2 µM (inactive); in the assay with DU-145, 22 µM (inactive); in the assay on SN12C, 16.6 µM (inactive); with A498, 5.52 µM (inactive). For the same molecule, the GI50 in the assay on HCT-15 is 16.9 µM; in the assay with UACC-62 it was 14.1 µM (inactive); with T47D, 16.3 µM (inactive); in the assay on NCI/ADR-RES it was 15.7 µM (inactive); in the assay with IGROV-1 it was 16.4 µM (inactive); in the assay with A549, 13.8 µM (inactive). The GI50 in the assay on PC-3 was 12.9 µM (inactive); with SW-620 it was 22.4 µM (inactive); with 786-0 it was 15.3 µM (inactive); in the assay on LOX IMVI, 16.7 µM (inactive); with CCRF-CEM, 13.1 µM (inactive).
